Experimental data as given in patent US10150757B2, “Quinazolinone derivatives as PARP inhibitors” (Janssen Pharmaceutica NV, priority 2004, dated 2018).

Compound | melting point [°C]
O=c1[nH]c(NCCCN2CCC(O)(c3ccc(Cl)cc3)CC2)nc2ccccc12 [Compound 2] | 178.4
O=c1[nH]c(NCCN2CCN(c3n[nH]c4ccccc34)CC2)nc2ccc(Cl)cc12 [Compound 1] | 186
